This passage reports Efficacy results from patent US20100099774A1 (priority 2007, published 2010).

Type in all cases: cell-based
The test system of one test is Colleotrichum lagenarium. Conditions: 63 ppm, 2% aqueous biomalt solution, 405 nm, 7 days after inoculation, Abbot's formula.
The test system of another test is Monographella nivalis. Particulars: 63 ppm.
For a further test, the system named is Pyrenophora teres. Particulars: 63 ppm.
The next test deals with Colleotrichum truncatum. Particulars: 63 ppm, 2% aqueous biomalt solution, 405 nm, 7 days after inoculation, Abbot's formula.
The subject of another test is Phytophthora infestans. Particulars: 63 ppm, pea juice-based aqueous nutrient medium, 405 nm, 7 days after inoculation, Abbot's formula.
The subject of another test is Leptosphaeria nodorum. Particulars: 63 ppm.
Test [1] relates to Pseudocercosporella herpotrichoides W-Type. Particulars: 63 ppm.
In the next test the test system is Septoria glycines. Particulars: 63 ppm.
The next test relates to Septoria tritici. Conditions: 63 ppm.
Another test deals with Rhynchosporium secalis. Conditions: 63 ppm.
The subject of the next test is Pyricularia oryzae. Particulars: 63 ppm, 2% aqueous biomalt solution, 405 nm, 7 days after inoculation, Abbot's formula.
The subject of the next test is Corynespora cassiicola. Particulars: 63 ppm.
In test [2] the test system is Pseudocercosporella herpotrichoides R-Type. Particulars: 63 ppm.

Each structure is given as a SMILES string.

As to `CCN/C(=N\Nc1c(Cl)cc(C(F)(F)F)cc1Cl)C1(C)CC1(Cl)Cl` (stereo not drawn) [compound I-2, N-Ethyl-2,2-dichloro-1-methylcyclopropane-carboxamide-2-(2,6-dichloro-α,α,α-trifluoro-p-tolyl)hydrazone], the Efficacy with Colleotrichum lagenarium is given as 89%; in the test with Monographella nivalis, 100%; in the test with Pyrenophora teres, 96%; in the test on Colleotrichum truncatum, 100%; in the test with Phytophthora infestans, 100%; in the test on Leptosphaeria nodorum it was 100%. For the same molecule, the Efficacy in test [1] was found to be 100%; in the test on Septoria glycines it was 100%; in the test on Septoria tritici, 100%; in the test with Rhynchosporium secalis it was 100%; in the test on Pyricularia oryzae, 91%; with Corynespora cassiicola, 100%. Moreover, the Efficacy in test [2] is recorded as 100%.
